Measured values: ChEMBL document CHEMBL1201862, “PubChem BioAssay data set” (2004)
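All cell lines were grown in 96-well plates and treated with compound for 48 hours. GI50 is the concentration that inhibits growth by half.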 Calls of active or inactive are those of the source. Rule as the data show it: active = GI50 up to about 1.1 µM and inactive = higher.

Columns and labels:
Assay in all cases: NCI-60 cell line screen, 48 h
[1] = system: XF498
[2] = system: EKVX
[3] = system: HCC 2998
[4] = system: HOP-62
[5] = system: SF-268
[6] = system: OVCAR-5
[7] = system: MOLT-4
[8] = system: HL-60
[9] = system: UO-31
[10] = system: Malme-3M
[11] = system: HCT-15
[12] = system: LXFL 529
[13] = system: OVCAR-8
[14] = system: IGROV-1
[15] = system: CCRF-CEM
[16] = system: ACHN
[17] = system: SK-MEL-5
[18] = system: SK-OV-3
[19] = system: HOP-18
[20] = system: COLO 205
[21] = system: SR
[22] = system: NCI-H23
[23] = system: A549
[24] = system: SK-MEL-28
[25] = system: SNB-19
[26] = system: HCT-116
[27] = system: M14
[28] = system: 786-0
[29] = system: SK-MEL-2
[30] = system: TK-10
[31] = system: SF-295
[32] = system: SN12C
[33] = system: DMS-114
[34] = system: HOP-92
[35] = system: HT-29
[36] = system: A498
[37] = system: DLD-1
[38] = system: UACC-62
[39] = system: U-251
[40] = system: SF-539
[41] = system: M19-MEL
[42] = system: SNB-75
[43] = system: NCI-H522
[44] = system: SW-620
[45] = system: KM-20L2
[46] = system: NCI-H460
[47] = system: KM12
[48] = system: LOX IMVI
[49] = system: SNB-78
[50] = system: DMS-273
[51] = system: CAKI-1
[52] = system: UACC-257
[53] = system: NCI-H226
[54] = system: K562
[55] = system: RPMI-8226
[56] = system: OVCAR-4
[57] = system: RXF 631
[58] = system: OVCAR-3

Measured: GI50

COc1ccc2c(c1)CCc1c(-c3n[nH]c4c3CCc3cc(OC)ccc3-4)n[nH]c1-2
35.1 µM: [11]
inactive: [1] 32.8 µM | [2] 31.3 µM | [3] > 100 µM | [4] 24 µM | [5] 37.1 µM | [6] > 100 µM | [7] 58.6 µM | [8] 27.5 µM | [9] 40.5 µM | [10] 37.9 µM | [12] 33.1 µM | [13] 37.8 µM | [14] 48.6 µM | [15] 26.1 µM | [16] 29.9 µM | [17] 30.8 µM | [18] 6.25 µM | [19] 25.8 µM | [20] 50.2 µM | [21] 38.1 µM | [22] 79.4 µM | [23] 30.3 µM | [24] 33.8 µM | [25] 76.9 µM | [26] 34.1 µM | [27] 25.9 µM | [28] 19 µM | [29] 43.9 µM | [30] > 100 µM | [31] 17.2 µM | [32] 57.4 µM | [33] 55.5 µM | [34] 30.8 µM | [35] 33.2 µM | [36] 27.6 µM | [37] 54.5 µM | [38] 23.5 µM | [39] 49.1 µM | [40] 24.1 µM | [41] 33 µM | [42] 23.3 µM | [43] 20.2 µM | [44] 17.9 µM | [45] 47.5 µM | [46] 39 µM | [47] 33.9 µM | [48] 17.9 µM | [49] 44.1 µM | [50] 17.4 µM | [51] 24.4 µM | [52] 21.5 µM | [53] 28.8 µM | [54] 8.89 µM

COc1cc([C@H]2Oc3cc(O)c4c(=O)cc(-c5ccc(O)cc5)oc4c3O[C@@H]2CO)ccc1O
inactive: [3] 15 µM | [4] 14.5 µM | [5] 2.28 µM | [7] 18.7 µM | [8] 18.8 µM | [9] 12.6 µM | [10] 18.8 µM | [12] 15.1 µM | [55] 16.1 µM | [14] 19.7 µM | [15] 13.6 µM | [16] 12.9 µM | [18] 14.6 µM | [20] 15.2 µM | [21] 15.3 µM | [22] 14.6 µM | [24] 14.5 µM | [56] 20.1 µM | [26] 13.5 µM | [27] 16.8 µM | [28] 15.3 µM | [29] 16.1 µM | [32] > 10 µM | [57] 10.6 µM | [33] 15.9 µM | [34] 25.5 µM | [36] 16.8 µM | [37] 15.3 µM | [38] 11.1 µM | [40] > 10 µM | [41] 17.7 µM | [42] 5.45 µM | [43] 4.76 µM | [46] 4.54 µM | [49] 14.6 µM | [50] 14.2 µM | [51] 15.1 µM | [53] 18.5 µM | [54] 23.4 µM

CCOC(=O)C1=C(c2ccccc2)NC(c2ccccc2)=C(C(=O)OCC)c2c1c(=O)cc[nH]c2=O
inactive: [1] > 100 µM | [3] > 100 µM | [4] > 100 µM | [5] > 100 µM | [6] > 100 µM | [7] 63.1 µM | [8] > 100 µM | [9] > 100 µM | [10] > 100 µM | [12] > 100 µM | [13] > 100 µM | [55] 53.1 µM | [14] > 100 µM | [16] 72.8 µM | [18] > 100 µM | [20] > 100 µM | [21] 83.8 µM | [22] 79.4 µM | [23] > 100 µM | [24] 66.1 µM | [25] > 100 µM | [56] 92.3 µM | [26] > 100 µM | [27] > 100 µM | [28] > 100 µM | [29] > 100 µM | [30] > 100 µM | [31] 86.7 µM | [32] > 100 µM | [57] 34.7 µM | [34] 71.6 µM | [58] > 100 µM | [35] 74.8 µM | [37] > 100 µM | [38] 26.4 µM | [39] > 100 µM | [40] > 100 µM | [41] > 100 µM | [42] > 100 µM | [43] 84.1 µM | [44] > 100 µM | [45] > 100 µM | [46] > 100 µM | [47] > 100 µM | [48] 62.1 µM | [49] 94 µM | [50] > 100 µM | [51] > 100 µM | [52] 99.8 µM | [53] > 100 µM | [54] 39.9 µM
> 100 µM: [11]
